Legend:
[1] = system: human fibroblasts and human keratinocytes; assay: Inhibition of apoptosis induced by a deficiency of growth factors (cell count, BrdU ELISA of cytoplasmic DNA fragments); assay type: cell-based; settings: for Content of DNA fragments / Cell count: conc. 0.001 % w/v; for Content of DNA fragments: BrdU in cytoplasmic DNA fragments, based on a million cells, control = 100; for Cell count: medium without fetal calf serum, in comparison to the control = 100
Method: The ability of carnosines to prevent apoptosis induced by a deficiency of growth factors in human skin cells was studied. These tests were carried out in vitro on human fibroblasts and human keratinocytes. The human cells were cultivated in a nutrient medium (DMEM=Dulbecco minimum essential medium from Life Technologie Sarl) with 10% fetal calf serum (from Dutcher). Bromodeoxyuridine (BrdU) was added to the nutrient medium; it was incorporated into the DNA and later served for detection of the DNA fragments in the cytoplasm. After an incubation period of two days, the nutrient medium was replaced by nutrient medium (DMEM) without fetal calf serum. The active substance to be tested was added. For comparison, a cell sample without active substance to be tested was incubated.
After a further incubation period of one or two days at 37° C., the cells were recovered by trypsinization according to the method of Dunnebacke and Zitcer described in: Cell and tissue culture, Ed.: J. Paul, Churchill Livingstone, 1975, p. 226. After the trypsinization, the cells were centrifuged and counted. Then the content of BrdU in the DNA fragments from the cytoplasm was determined by means of the ELISA test (ELISA kit from Roche). The content of BrdU is a measure of the DNA fragments which have passed from the nucleus, the cell core, into the cytoplasm. The results were based on a million cells and given in percent in comparison to the control.

human fibroblasts [2] = assay: Stimulation of the synthesis of dermal macromolecules (GAG) in collagen gel containing human fibroblasts; assay type: cell-based; settings: 0.5% by weight FCS + 0.01% by weight substance; for Area 7 days / Area 14 days / Density 14 days: collagen gel; for Density 14 days: relative density 0=clear or white, 1=black; for GAG content 7 days / GAG content 14 days: relative value of the gray stage (0=white to 255=black), perifibroblast area
Method: The measuring method is based on staining macromolecules in a culture of human fibroblasts which, with type I collagen, forms a collagen gel or collagen lattice fibers. Certain regions of those fibers are quantified by means of staining reagents for the proportion of the mentioned macromolecules.
For that purpose, a suspension of human fibroblasts was mixed with a solution of type I collagen (1-2 mg/ml). This mixture was incubated in a defined nutrient medium (DMEM=Dulbecco minimum essential medium, Life Technologie Sarl) comprising 0.5 or 2% by weight fetal calf serum (FCS) for 14 days at 37° C. in a 5% CO2 atmosphere in Petri dishes (5 ml per dish) with the addition of different concentrations of the plant extracts to be tested.
The kinetics of the collagen gel […] was determined 2 to 3 times per week by measuring two perpendicular diameters on each collagen gel using a microscope with an image analysis system. The size of the area is shown in cm^2 in Table 8. After incubation for 14 days, the density of the collagen gel was determined by image analysis with a light source of visible light, by comparatively analyzing different gray stages. This is a relative determination of the density (0=clear or white and 1=black), which cannot be given a unit.
After an incubation period of 7 and 14 days, biopsies (tissue samples) were taken and histological sections of the collagen gel containing human fibroblasts were obtained. The synthesis of macromolecules was analyzed and quantified by the staining of glycosaminoglycan with PAS Alcian blue, for example from SIGMA, by the periodic acid-Schiff method (PAS) described in: Mowry R W, Anal. NY Adad. Sci. 106 Art 2, 402, 1963. The stimulation of the synthesis of macromolecules was evaluated in the immediate vicinity of fibroblasts. This zone is also referred to as the “perifibroblast area”.
The “perifibroblast” secretion, or the secretion of fibroblasts into the periphery, was quantified by an image analyzer by means of a microscope. Reactive structures in the “perifibroblast area” were detected, and the different gray stages were comparatively determined. The values of the gray stages were thereby subdivided from 0=white to 255=black. These parameters are directly proportional to the intensity of the synthesis of macromolecules and thus to the GAG content of the fibroblasts.
The results of the values of these parameters are shown in Table 3 below and are to be regarded directly as representative values for the synthesis activity of the fibroblasts. The content of GAGs is described as a relative value of the gray stage.

type I collagen = assay: Inhibition of the glycation of collagen (Schiff's bases, fluorescence at 430 nm); assay type: biochemical; settings: with glucose, 21 days at 45° C.; control with glucose 100, control without glucose 46
Method: The suspensions were then centrifuged and the content of Schiff's bases in the supernatant liquid was determined by fluorescence measurement at 430 nm. The results are again based on the control as standards (without extract and without glucose).

human fibroblasts [3] = assay: DNA content of human fibroblasts (Desaulniers method); assay type: cell-based; settings: conc. 0.001 % w/v, compared to blank sample = 100
Method: G6PDH activity was determined in vitro on human fibroblasts by the enzymatic method of Okada, while the DNA content was determined by the Desaulniers method. The results of 3 series of measurements with triple determination are given in %-rel. compared to a blank sample.

[4] = system: glucose-6-phosphate dehydrogenase (G6PDH); assay: G6PDH activity on human fibroblasts (enzymatic method of Okada); assay type: cell-based; settings: for G6PDH after 3 d / G6PDH after 6 d: conc. 0.001 % w/v, compared to blank sample = 100
From the text: The enzyme glucose-6-phosphate dehydrogenase (G6PDH) catalyzes the first step of the so-called “pentose pathway”, in which an important DNA component, namely deoxyribose, is formed. Glucose 6-phosphate (G6P) is thereby converted into 6-phosphogluconate (6PG) by means of G6PDH. At the same time, the coenzyme NADP required thereby is reduced to NADPH2, which in turn is able to catalyze a large number of other biological reactions such as, for example, the recycling of glutathione or lipid synthesis. Reduced glutathione protects many enzymes which have SH groups and cells against oxidative stress, such as, for example, the action of UV. The G6PDH content is thus an important parameter for cell protection and skin renewal. G6PDH activity was determined in vitro on human fibroblasts by the enzymatic method of Okada, while the DNA content was determined by the Desaulniers method. The results of 3 series of measurements with triple determination are given in %-rel. compared to a blank sample.

pancreas elastase = pancreas elastase (Sus scrofa, UniProt P00772); assay: Inhibition of elastase activity; assay type: biochemical; settings: 0.3% by weight; 30 minutes at room temperature; relative to control = 0%
Method: In order to determine the effectiveness of the plant extract in inhibiting the release of elastase, pancreas elastase (a serine protease) was studied and, as substrate, elastin was labeled with a chromogenic synthetic substrate. The system was incubated with the active ingredients for 30 minutes at room temperature and then, after centrifugation, the optical density of the dye at 410 nm was determined. The amount of extracts used was 0.3% by weight. The results are given relative to a control as standard (=0%); a1-antitrypsin was used as the standard.

[5] = Membran & Cell Biol. 12(1), p. 89-99 (1998); cited from earlier work
[6] = Biochem. J. 264(3), p. 863-869 (1989); cited from earlier work

Sequence of pancreas elastase (P00772 27-266): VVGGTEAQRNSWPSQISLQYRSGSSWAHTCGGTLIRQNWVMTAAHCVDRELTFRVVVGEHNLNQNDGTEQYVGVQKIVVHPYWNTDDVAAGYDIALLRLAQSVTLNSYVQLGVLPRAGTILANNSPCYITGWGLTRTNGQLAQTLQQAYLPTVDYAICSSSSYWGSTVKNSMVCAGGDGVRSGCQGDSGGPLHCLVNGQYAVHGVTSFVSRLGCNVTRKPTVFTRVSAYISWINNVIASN

Compound	Content of DNA fragments [1] [%]	Cell count [1] [%]	Area 7 days (human fibroblasts [2]) [cm2]	Area 14 days (human fibroblasts [2]) [cm2]	Density 14 days (human fibroblasts [2])	GAG content 7 days (human fibroblasts [2])	GAG content 14 days (human fibroblasts [2])	Inhibition of the glycation of collagen (type I collagen) [%]	DNA after 3 d (human fibroblasts [3]) [%-rel.]	DNA after 6 d (human fibroblasts [3]) [%-rel.]	G6PDH after 3 d [4] [%-rel.]	G6PDH after 6 d [4] [%-rel.]	Elastase inhibition (pancreas elastase) [%]	apoptosis and content of free DNA fragments in the cytoplasm (in words) ([1]; human cell cultures)	capture of alpha-beta-unsaturated aldehydes [5]	capture of ROS [6]	G6PDH activity (in words) [4]
C[N+](C)(C)C[C@H](O)CC(=O)O.[Cl-] [Carnitine*HCl]	88	118	9.9	5.8	0.25	11.8	13.3	65	106	118	104	109	28				
NCCC(=O)N[C@@H](Cc1cnc[nH]1)C(=O)O [carnosine]														counteracts apoptosis	able to capture alpha-beta-unsaturated aldehydes	capable of capturing ROS	increases the activity of G6PDH production
CCCCCCOC(=O)c1ccccc1C(=O)c1ccc(N(CC)CC)cc1O [Uvinul A, 2-(4-diethylamino-2-hydroxybenzoyl)-benzoic acid hexyl ester, reference compound]									97	93	88	81					
NCCC(=O)N[C@@H](Cc1cnc[nH]1)C(=O)O [L-Carnosine]	85	129	10.1	6.0	0.25	12.1	15.1	68	111	120	105	109	32				
CCCCC(CC)COC(=O)C(C#N)=C(c1ccccc1)c1ccccc1 (centres unmarked) [Octocrinyl, reference compound]									95	90	89	85					
